# Source: PubChem BioAssay (NCI)
#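 Cultured in 96-well plates, cells were exposed to test compound for 48 hours across five concentrations. GI50: concentration for 50% inhibition of growth. At the TGI there is no net growth.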
# Legend:
# Test in all cases: NCI tumour cell line growth inhibition, 48 h
# MDA-MB-231 breast = test system: MDA-MB-231 breast
# RXF 393 renal = test system: RXF 393 renal
# HCC-2998 colon = test system: HCC-2998 colon
# DU-145 prostate = test system: DU-145 prostate
# OVCAR-4 ovarian = test system: OVCAR-4 ovarian
# PC-3 prostate = test system: PC-3 prostate
# IGROV1 ovarian = test system: IGROV1 ovarian
# HL-60(TB) leukemia = test system: HL-60(TB) leukemia
# NCI-H460 lung = test system: NCI-H460 lung
# HCT-116 colon = test system: HCT-116 colon
# UACC-62 melanoma = test system: UACC-62 melanoma
# NCI-H522 lung = test system: NCI-H522 lung
# MOLT-4 leukemia = test system: MOLT-4 leukemia
# 786-0 renal = test system: 786-0 renal
# HCT-15 colon = test system: HCT-15 colon
# TK-10 renal = test system: TK-10 renal
# OVCAR-5 ovarian = test system: OVCAR-5 ovarian
# SF-268 CNS = test system: SF-268 CNS
# SF-539 CNS = test system: SF-539 CNS
# SNB-75 CNS = test system: SNB-75 CNS
# KM12 colon = test system: KM12 colon
# SNB-19 CNS = test system: SNB-19 CNS
# T-47D breast = test system: T-47D breast
# SF-295 CNS = test system: SF-295 CNS
# HOP-92 NSCLC = test system: HOP-92 NSCLC
# HT29 colon = test system: HT29 colon
# UACC-257 melanoma = test system: UACC-257 melanoma
# M14 melanoma = test system: M14 melanoma
# A498 renal = test system: A498 renal
# RPMI-8226 leukemia = test system: RPMI-8226 leukemia
# MDA-MB-435 = test system: MDA-MB-435
# BT-549 breast = test system: BT-549 breast
# CAKI-1 renal = test system: CAKI-1 renal
# A549 NSCLC = test system: A549 NSCLC
# COLO 205 colon = test system: COLO 205 colon
# NCI-H23 lung = test system: NCI-H23 lung
# SR leukemia = test system: SR leukemia
# NCI-H226 lung = test system: NCI-H226 lung
# SK-MEL-28 melanoma = test system: SK-MEL-28 melanoma
# NCI/ADR-RES ovarian = test system: NCI/ADR-RES ovarian
# SK-MEL-5 melanoma = test system: SK-MEL-5 melanoma
# K-562 leukemia = test system: K-562 leukemia
# OVCAR-8 ovarian = test system: OVCAR-8 ovarian
# CCRF-CEM leukemia = test system: CCRF-CEM leukemia
# ACHN renal = test system: ACHN renal
# UO-31 renal = test system: UO-31 renal
# HOP-62 NSCLC = test system: HOP-62 NSCLC
# MCF7 breast = test system: MCF7 breast
# EKVX NSCLC = test system: EKVX NSCLC
# SW-620 colon = test system: SW-620 colon
# HS 578T breast = test system: HS 578T breast
# SK-MEL-2 melanoma = test system: SK-MEL-2 melanoma
# OVCAR-3 ovarian = test system: OVCAR-3 ovarian
# SN12C renal = test system: SN12C renal
# LOX IMVI melanoma = test system: LOX IMVI melanoma
compound,measurement,setting,value
CC(=O)OC1CC2C(C)(C)C(=O)C=C[C@]2(C)C2CC[C@]3(C)C(OCC(=O)[C@H]3c3ccoc3)[C@]12C (stereo not given in full),GI50,MDA-MB-231 breast,8.99 µM
same,TGI,MDA-MB-231 breast,29.4 µM
same,GI50,RXF 393 renal,4.43 µM
same,TGI,RXF 393 renal,18.8 µM
same,GI50,HCC-2998 colon,11.3 µM
same,TGI,HCC-2998 colon,24.7 µM
same,GI50,DU-145 prostate,3.89 µM
same,TGI,DU-145 prostate,19.8 µM
same,GI50,OVCAR-4 ovarian,4.2 µM
same,TGI,OVCAR-4 ovarian,17.2 µM
same,GI50,PC-3 prostate,3.88 µM
same,TGI,PC-3 prostate,17.1 µM
same,GI50,IGROV1 ovarian,7.83 µM
same,TGI,IGROV1 ovarian,34.9 µM
same,GI50,HL-60(TB) leukemia,3.11 µM
same,TGI,HL-60(TB) leukemia,17.8 µM
same,GI50,NCI-H460 lung,3.93 µM
same,TGI,NCI-H460 lung,15.2 µM
same,GI50,HCT-116 colon,3.42 µM
same,TGI,HCT-116 colon,11.4 µM
same,GI50,UACC-62 melanoma,5.89 µM
same,TGI,UACC-62 melanoma,21.7 µM
same,GI50,NCI-H522 lung,3.15 µM
same,TGI,NCI-H522 lung,10.1 µM
same,GI50,MOLT-4 leukemia,3.62 µM
same,TGI,MOLT-4 leukemia,22.1 µM
same,GI50,786-0 renal,4.66 µM
same,TGI,786-0 renal,21.7 µM
same,GI50,HCT-15 colon,4.19 µM
same,TGI,HCT-15 colon,15.8 µM
same,GI50,TK-10 renal,10.4 µM
same,TGI,TK-10 renal,35.7 µM
same,GI50,OVCAR-5 ovarian,23.9 µM
same,TGI,OVCAR-5 ovarian,46.2 µM
same,GI50,SF-268 CNS,2.82 µM
same,TGI,SF-268 CNS,10.5 µM
same,GI50,SF-539 CNS,15.2 µM
same,TGI,SF-539 CNS,31.3 µM
same,GI50,SNB-75 CNS,4.68 µM
same,TGI,SNB-75 CNS,17.1 µM
same,GI50,KM12 colon,3.77 µM
same,TGI,KM12 colon,12.3 µM
same,GI50,SNB-19 CNS,6.53 µM
same,TGI,SNB-19 CNS,21.2 µM
same,GI50,T-47D breast,2.97 µM
same,TGI,T-47D breast,15.4 µM
same,GI50,SF-295 CNS,16.5 µM
same,TGI,SF-295 CNS,48.6 µM
same,GI50,HOP-92 NSCLC,10.7 µM
same,TGI,HOP-92 NSCLC,35.5 µM
same,GI50,HT29 colon,2.76 µM
same,TGI,HT29 colon,11.6 µM
same,GI50,UACC-257 melanoma,2.51 µM
same,TGI,UACC-257 melanoma,15 µM
same,GI50,M14 melanoma,12.4 µM
same,TGI,M14 melanoma,27.3 µM
same,GI50,A498 renal,12.7 µM
same,TGI,A498 renal,29.7 µM
same,GI50,RPMI-8226 leukemia,2.46 µM
same,TGI,RPMI-8226 leukemia,6.8 µM
same,GI50,MDA-MB-435,2.53 µM
same,TGI,MDA-MB-435,8.58 µM
same,GI50,BT-549 breast,8.63 µM
same,TGI,BT-549 breast,57.8 µM
same,GI50,CAKI-1 renal,3.58 µM
same,TGI,CAKI-1 renal,23.9 µM
same,GI50,A549 NSCLC,6.28 µM
same,TGI,A549 NSCLC,23.1 µM
same,GI50,COLO 205 colon,1.91 µM
same,TGI,COLO 205 colon,8.48 µM
same,GI50,NCI-H23 lung,8.66 µM
same,TGI,NCI-H23 lung,26.5 µM
same,GI50,SR leukemia,2.27 µM
same,TGI,SR leukemia,14.5 µM
same,GI50,NCI-H226 lung,11.8 µM
same,TGI,NCI-H226 lung,31.4 µM
same,GI50,SK-MEL-28 melanoma,4.63 µM
same,TGI,SK-MEL-28 melanoma,18.5 µM
same,GI50,NCI/ADR-RES ovarian,5.07 µM
same,TGI,NCI/ADR-RES ovarian,22.9 µM
same,GI50,SK-MEL-5 melanoma,11.5 µM
same,TGI,SK-MEL-5 melanoma,28 µM
same,GI50,K-562 leukemia,2.25 µM
same,TGI,K-562 leukemia,7.04 µM
same,GI50,OVCAR-8 ovarian,8.3 µM
same,TGI,OVCAR-8 ovarian,27.6 µM
same,GI50,CCRF-CEM leukemia,4.06 µM
same,TGI,CCRF-CEM leukemia,16.3 µM
same,GI50,ACHN renal,13.4 µM
same,TGI,ACHN renal,31.4 µM
same,GI50,UO-31 renal,10.1 µM
same,TGI,UO-31 renal,22.6 µM
same,GI50,HOP-62 NSCLC,8.29 µM
same,TGI,HOP-62 NSCLC,21.6 µM
same,GI50,MCF7 breast,6.6 µM
same,TGI,MCF7 breast,35.7 µM
same,GI50,EKVX NSCLC,18 µM
same,TGI,EKVX NSCLC,> 100 µM
same,GI50,SW-620 colon,11.1 µM
same,TGI,SW-620 colon,39.3 µM
same,GI50,HS 578T breast,19.4 µM
same,TGI,HS 578T breast,> 100 µM
same,GI50,SK-MEL-2 melanoma,13.8 µM
same,TGI,SK-MEL-2 melanoma,42.3 µM
same,GI50,OVCAR-3 ovarian,5.56 µM
same,TGI,OVCAR-3 ovarian,22.9 µM
same,GI50,SN12C renal,8.64 µM
same,TGI,SN12C renal,28.6 µM
same,GI50,LOX IMVI melanoma,3.94 µM
same,TGI,LOX IMVI melanoma,14.9 µM
